Assay results published in patent US8835556B2, “Hydrolytically stable maleimide-terminated polymers” (priority 2002, dated 2014).

Details: buffer
Protocol: Typically, such hydrolysis evaluations are carried out at pH 7.5 in phosphate buffer at room temperature and are measured by observing the UV absorption of the maleimide ring.
The half-life of a polymer maleimide can be determined by measuring the concentration of the maleimide-terminated polymer over time using HPLC or by observing the UV absorption of the maleimide ring.
Using HPLC analysis, the rate of hydrolytic degradation of the maleimide ring of several exemplary maleimide-terminated mPEG polymers (average molecular weight 5000 Da) was explored.
The following linkages between the maleimide and the PEG polymer segment were evaluated: amidoethylene (L1-AMDE), amidopentamethylene (L1-AMPE), amidocyclohexylmethyl (L1-MCH), oxybutyl (L3-TEME), oxyhexyl (L3-HEXA), oxyethyl (L3-ET), and oxypropyl (L3-TME).
Hydrolysis studies were conducted on several exemplary stabilized PEG-maleimides as described above in Example 7.

| Substance | HALF-LIFE, IN HOURS [h] | Half-life [h] |
| --- | --- | --- |
| mPEG (5K DA)-propylmaleimide [mPEG-TME-MAL] | 11.5 | 11.5 |
| 1-N-maleimidomethyl-3-(methoxypoly(ethylene glycol)propionamidomethyl)cyclohexane | 64.6 | – |
| 1-(N-maleimidomethyl)-4-(methoxypoly(ethylene glycol)propionamidomethyl)cyclohexane | 20.6 | – |
